# Assay results reported in article PMC7994582 (Communications Biology, 2021).
# Where a SMILES comes first, the peptide text is derived from it. [ ]: non-standard residue; d: D form. pS = N[C@@H](COP(=O)(O)O)C(=O)O
# Tests used:
# Ess1 [1] = biological target: T1, Ess1 (Saccharomyces cerevisiae, UniProt P22696, R8S); assay: NMR 1H-15N HSQC titration, Kd determination (single-site model); format: binding
# T1 construct: Full-length Ess1 or Ess1 C120S plasmid was used to transform E. coli cells; 6xHis (cleaved yes); made in house; host or cells: E. coli Rosetta II (DE3) pLysS, isotope-labeled M9 minimal media
# Procedure: Binding was monitored by recording ^1H–^15N HSQC spectra at different peptide to protein ratios. For each backbone amide, we assumed that the CSP was a weighted average between the free (Δδ = 0) and ligand-bound (Δδ = Δδbound) states, such that Δδ = Δδbound * [PL]/[Ptotal]. Here, [PL] and [Ptotal] represent the ligand-bound protein concentration, and Ptotal is the total protein concentration of Ess1. The CSP for each amide was calculated using the equation CSP=ΔδH^2+ΔδN/5^2 where ΔδH and ΔδN represent the change in chemical shift in the ^1H and ^15N dimensions, such that Δδ = 0 when calculating the CSP for the reference spectrum (in the absence of ligand). To obtain the dissociation binding constant, Kd, we used the single-site binding equation, PL=(([Ptotal]+[Ltotal]+Kd)−([Ptotal]+[Ltotal]+Kd)^2−4*[Ptotal]*[Ltotal])/2 , where [Ptotal] and [Ltotal] are total protein (Ess1) and ligand (CTD peptide) concentrations, respectively. Fitting was performed using an in-house Matlab script. […] Errors represent standard deviation of residue-specific Kd values.
# Ess1 [2] = biological target: T1, Ess1; assay: Competition fluorescence anisotropy (unlabeled CTD peptides vs. FITC-1R-CTD for Ess1 binding); details: for Normalized Anisotropy: competition vs FITC-1R-CTD, mean
# Procedure: A 1 repeat CTD peptide labeled with FITC at its N-terminus was used as a probe (FITC-1R, Table 2). […] Each point represents an average (±SD) of n = 2 or 3 from independent experiments.
# Fluorescence anisotropy measurements were performed in a Hidex Sense microplate reader using an excitation wavelength of 485 nm and an emission wavelength of 535 nm. Measurements were performed in 20 mM Tris pH 8.0, 3 mM TCEP buffer. […] Competition data was used to calculate IC50 values to compare the affinity differences between all five substrates (Eq. (1)).1 Competitionmodel:f1=min+max−min/1+x/IC50∧−Hillslope
# [3] = biological target: 1R CTD peptide CTD 1 repeat (Saccharomyces cerevisiae) (UniProt P04050); details: cited from earlier work
# [4] = residue-specific, 1 to 1 binding fit of NMR titration
# T1 sequence (P22696 whole entry R8S): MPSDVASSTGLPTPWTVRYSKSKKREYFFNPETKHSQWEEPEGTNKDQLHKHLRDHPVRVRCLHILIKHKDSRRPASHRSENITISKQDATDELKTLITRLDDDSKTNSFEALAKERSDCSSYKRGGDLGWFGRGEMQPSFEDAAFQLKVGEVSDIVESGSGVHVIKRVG
# 1R CTD peptide CTD 1 repeat (Saccharomyces cerevisiae), sequence (P04050 whole entry, looked up, tested part not stated): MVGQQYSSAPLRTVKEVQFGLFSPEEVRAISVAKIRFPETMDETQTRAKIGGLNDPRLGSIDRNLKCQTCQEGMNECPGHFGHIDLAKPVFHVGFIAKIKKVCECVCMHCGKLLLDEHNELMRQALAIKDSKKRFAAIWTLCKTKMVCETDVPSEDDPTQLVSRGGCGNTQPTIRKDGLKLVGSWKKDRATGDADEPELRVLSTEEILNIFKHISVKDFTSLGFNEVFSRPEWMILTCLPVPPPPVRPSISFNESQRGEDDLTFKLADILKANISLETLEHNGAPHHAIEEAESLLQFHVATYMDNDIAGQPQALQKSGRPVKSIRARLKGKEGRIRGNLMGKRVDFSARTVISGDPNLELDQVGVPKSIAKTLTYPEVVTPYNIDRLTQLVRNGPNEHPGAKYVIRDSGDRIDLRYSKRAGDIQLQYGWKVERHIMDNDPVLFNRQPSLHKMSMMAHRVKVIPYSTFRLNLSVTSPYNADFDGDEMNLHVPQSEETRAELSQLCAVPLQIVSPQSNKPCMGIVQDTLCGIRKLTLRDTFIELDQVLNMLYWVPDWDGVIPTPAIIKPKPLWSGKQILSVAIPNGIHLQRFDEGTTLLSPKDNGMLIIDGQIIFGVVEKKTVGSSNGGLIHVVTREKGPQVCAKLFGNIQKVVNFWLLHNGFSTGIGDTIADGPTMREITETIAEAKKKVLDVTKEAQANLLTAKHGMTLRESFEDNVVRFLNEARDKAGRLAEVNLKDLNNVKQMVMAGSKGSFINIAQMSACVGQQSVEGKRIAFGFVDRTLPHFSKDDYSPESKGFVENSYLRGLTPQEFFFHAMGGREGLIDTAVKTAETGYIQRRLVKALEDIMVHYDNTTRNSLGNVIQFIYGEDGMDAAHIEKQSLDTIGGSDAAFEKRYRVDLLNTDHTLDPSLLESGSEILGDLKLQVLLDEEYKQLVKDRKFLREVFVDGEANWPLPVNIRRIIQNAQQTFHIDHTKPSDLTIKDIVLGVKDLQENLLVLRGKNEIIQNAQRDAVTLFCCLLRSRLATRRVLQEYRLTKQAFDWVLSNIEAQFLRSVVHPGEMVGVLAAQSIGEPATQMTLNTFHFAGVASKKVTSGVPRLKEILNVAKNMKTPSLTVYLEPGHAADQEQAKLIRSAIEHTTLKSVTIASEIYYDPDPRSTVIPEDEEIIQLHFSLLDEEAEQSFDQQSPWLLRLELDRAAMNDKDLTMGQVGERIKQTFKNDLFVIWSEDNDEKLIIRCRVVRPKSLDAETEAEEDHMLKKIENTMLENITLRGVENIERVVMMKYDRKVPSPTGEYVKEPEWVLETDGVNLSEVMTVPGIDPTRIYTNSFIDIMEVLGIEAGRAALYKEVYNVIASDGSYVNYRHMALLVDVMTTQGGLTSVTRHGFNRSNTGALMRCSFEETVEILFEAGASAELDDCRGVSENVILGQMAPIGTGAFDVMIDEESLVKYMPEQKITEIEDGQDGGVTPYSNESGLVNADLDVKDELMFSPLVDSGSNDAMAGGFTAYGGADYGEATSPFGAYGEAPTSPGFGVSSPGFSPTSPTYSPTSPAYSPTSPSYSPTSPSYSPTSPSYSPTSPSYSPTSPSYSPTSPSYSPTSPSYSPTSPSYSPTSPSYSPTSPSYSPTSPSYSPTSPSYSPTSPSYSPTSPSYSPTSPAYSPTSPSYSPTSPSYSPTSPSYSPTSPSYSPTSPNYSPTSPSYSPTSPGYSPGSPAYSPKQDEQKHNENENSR
# Ess1 (from UniProt P22696), sequence (P22696 whole entry): as the sequence (P22696 whole entry R8S) above, with S8R counted along it
compound,measurement,setting,value
CC(=O)N[C@@H](C)C(=O)N[C@@H](CO)C(=O)N[C@@H](Cc1ccc(O)cc1)C(=O)N[C@@H](CO)C(=O)N1CCC[C@H]1C(=O)N[C@H](C(=O)N[C@@H](COP(=O)(O)O)C(=O)N1CCC[C@H]1C(=O)N[C@@H](CO)C(=O)N[C@@H](Cc1ccc(O)cc1)C(=O)N[C@@H](CO)C(N)=O)[C@@H](C)O [1R] (Ac-ASYSPT[pS]PSYS-NH2),Kd,Ess1 [1],155 µM
same,"Kd, Ess1 residue 16",Ess1 [1]; [4],119.2 µM
same,"Kd, Ess1 residue 17",Ess1 [1]; [4],111.1 µM
same,"Kd, Ess1 residue 18",Ess1 [1]; [4],151.9 µM
same,"Kd, Ess1 residue 19",Ess1 [1]; [4],153.7 µM
same,"Kd, Ess1 residue 23",Ess1 [1]; [4],148.5 µM
same,"Kd, Ess1 residue 25",Ess1 [1]; [4],124.8 µM
same,"Kd, Ess1 residue 26",Ess1 [1]; [4],196.0 µM
same,"Kd, Ess1 residue 27",Ess1 [1]; [4],128.9 µM
same,"Kd, Ess1 residue 28",Ess1 [1]; [4],161.3 µM
same,"Kd, Ess1 residue 29",Ess1 [1]; [4],141.4 µM
same,"Kd, Ess1 residue 30",Ess1 [1]; [4],103.1 µM
same,"Kd, Ess1 residue 34",Ess1 [1]; [4],233.3 µM
same,"Kd, Ess1 residue 35",Ess1 [1]; [4],274.5 µM
same,"Kd, Ess1 residue 37",Ess1 [1]; [4],153.0 µM
same,"Kd, Ess1 residue 38",Ess1 [1]; [4],102.8 µM
same,"Kd, Ess1 residue 39",Ess1 [1]; [4],153.9 µM
same,"Kd, Ess1 residue 40",Ess1 [1]; [4],157.5 µM
same,"Kd, Ess1 residue 48",Ess1 [1]; [4],156.8 µM
same,"Kd, Ess1 residue 49",Ess1 [1]; [4],216.2 µM
same,"Kd, Ess1 residue 52",Ess1 [1]; [4],132.6 µM
same,"Kd, Ess1 residue 58",Ess1 [1]; [4],96.2 µM
same,"Kd, Ess1 residue 59",Ess1 [1]; [4],156.4 µM
same,"Kd, Ess1 residue 64",Ess1 [1]; [4],134.1 µM
same,"Kd, Ess1 residue 70",Ess1 [1]; [4],111.0 µM
same,"Kd, Ess1 residue 73",Ess1 [1]; [4],89.4 µM
same,"Kd, Ess1 residue 84",Ess1 [1]; [4],119.4 µM
same,"Kd, Ess1 residue 87",Ess1 [1]; [4],180.8 µM
same,"Kd, Ess1 residue 123",Ess1 [1]; [4],227.8 µM
same,"Kd, Ess1 residue 130",Ess1 [1]; [4],175.2 µM
same,"Kd, Ess1 residue 131",Ess1 [1]; [4],207.7 µM
same,"Kd, Ess1 residue 133",Ess1 [1]; [4],166.8 µM
same,"Kd, Ess1 residue 137",Ess1 [1]; [4],128.3 µM
same,"Kd, Ess1 residue 145",Ess1 [1]; [4],205.8 µM
same,"Kd, Ess1 residue 146",Ess1 [1]; [4],235.1 µM
same,"Kd, Ess1 residue 149",Ess1 [1]; [4],100.8 µM
same,"Kd, Ess1 residue 150",Ess1 [1]; [4],113.4 µM
same,"Kd, Ess1 residue 157",Ess1 [1]; [4],151.8 µM
same,"Kd, Ess1 residue 158",Ess1 [1]; [4],122.1 µM
same,"Kd, Ess1 residue 159",Ess1 [1]; [4],176.3 µM
same,"Kd, Ess1 residue 162",Ess1 [1]; [4],71.8 µM
same,"Kd, Ess1 residue 164",Ess1 [1]; [4],188.7 µM
same,IC50,Ess1 [2],259 ± 33 µM
same,Normalized Anisotropy,Ess1 [2]; [1R CTD] 21 μM,0.9587
same,Normalized Anisotropy,Ess1 [2]; [1R CTD] 42 μM,0.9533
same,Normalized Anisotropy,Ess1 [2]; [1R CTD] 84 μM,0.9581
same,Normalized Anisotropy,Ess1 [2]; [1R CTD] 280 μM,0.8033
same,Normalized Anisotropy,Ess1 [2]; [1R CTD] 336 μM,0.7637
same,Normalized Anisotropy,Ess1 [2]; [1R CTD] 560 μM,0.6982
CC(=O)N[C@@H](Cc1ccc(O)cc1)C(=O)N[C@@H](CO)C(=O)N1CCC[C@H]1C(=O)N[C@H](C(=O)N[C@@H](COP(=O)(O)O)C(=O)N1CCC[C@H]1C(=O)N[C@@H](CO)C(=O)N[C@@H](Cc1ccc(O)cc1)C(=O)N[C@@H](CO)C(=O)N1CCC[C@H]1C(=O)N[C@H](C(=O)N[C@@H](COP(=O)(O)O)C(=O)N1CCC[C@H]1C(=O)N[C@@H](CO)C(N)=O)[C@@H](C)O)[C@@H](C)O [2R],IC50,Ess1 [2],59 µM
same,Normalized Anisotropy,Ess1 [2]; [2R CTD] 29.25 μM,0.8399
same,Normalized Anisotropy,Ess1 [2]; [2R CTD] 58.5 μM,0.6905
same,Normalized Anisotropy,Ess1 [2]; [2R CTD] 234 μM,0.4873
Ess1 (from UniProt P22696),Kd,[3],60 µM
